{"source": "patent US6887895B2", "about": "“Pseudolaric acid-B derivatives, their preparation and pharmaceutical compositions” (Shanghai Institute of Materia Medica Chinese Academy of …, priority 2001, dated 2005)", "key": {"[1]": {"tested_on": "P388 murin leukemia cells", "experiment": "P388 proliferation assay (MTT)", "format": "cell-based, murine", "experimental": "(§1) To evaluate the anti-tumor pharmacological activity of the compounds of the invention, the anti-proliferation activity thereof was assayed using P388 murin leukemia cells and A549 human lung adenocarcinoma cells; the anti-angiogenic activity, a newer target of antitumor, was measured using human microvascular endothelial cells (HMEC). Pseudolarix acid-B and hydroxycamptothecin were used as reference compounds in the evaluation.\n(§2) P388, A549 and HMEC Proliferation Assay\n(§3) Materials: DMEM was purchased from Gibco (Life Technologies, Grand Island, N.Y., USA). Sulforodamine B (SRB) and MTT were obtained from Sigma; TCA […] and Tris base buffer were analytical pure products made in China.\nMTT assay: P388 cells were seeded at a density of 1.5×10^5/ml into wells of 96-well plates and incubated with complete medium. After 24 hr, serial dilutions of the compounds (10 μL) prepared in medium were added. Experiments at each concentration of compounds were performed in triplicate with controls of cell-free withered wells and cell-free withered wells at corresponding concentration of compounds, if it is colored. The plates were incubated at 37° C., 5% CO2, for 48 hr. Then, 20 μL aliquots of MTT (Sigma) solution (5 mg/mL) in saline were added directly to all the appropriate wells. The culture was continuously incubated for 4 hr. Then 50 μL “triplex solution” (10% SDS-5% isobutanol- 0.01M HCl) was added into each well. After the plates were incubated at 37° C. overnight, the values of absorbance at 520 nm were measured by using a plate reader (VERSA Max, Molecular Devices).\n(§4) The rate of inhibition on the growth of cancer cells was calculated by the formula: Rate of growth inhibition=[1−(A520 treated/A520 control)]×100%\n(§5) The result was also expressed as IC50 (the drug concentration reducing by 50% the absorbance in treated cells, with respect to untreated cells) that was calculated by Logit method. The mean IC50 was determined according to the data from three independent tests."}, "[2]": {"tested_on": "A549 human lung adenocarcinoma cells", "experiment": "A549 proliferation assay (SRB)", "format": "cell-based", "experimental": "as §1, §2, §3\n(§6) SRB assay: Tumor (A549 and HMEC) cells in logarithmic growth were plated in DMEM media in the wells of a 96-well plate (5×10^3 cells/90 μL/well) and serial dilutions of the compounds (10 μL) prepared in medium were added. Experiments at each concentration of compounds were performed in triplicate with controls of normal saline and cell-free withered wells. The plates were incubated at 37° C., 5% CO2, for 72 hr. The media were decanted and cells were fixed with cold (4° C.) 10% trichloroacetic acid, followed by incubation at 4° C. for 1 hr. Then plates were washed with deionised water five times and allowed to air dry and stained by addition of 100 μL/well SRB solution [0.4% SRB (Sigma) in 1% acetic acid (W/V)] for 15 min. Following staining, plates were quickly washed five times with 1% acetic acid to remove unbound dye, and allowed to air dry. Bound dye was solubilized with Tris buffer (pH 10.5) prior to reading plates. The OD was measured with a multiwell spectrophotometer (VERSAmax, Molecular Devices, USA) at a wavelength of 520 nm.\nas §4, §5"}, "Candida albicans": {"tested_on": "Candida albicans", "experiment": "Antifungal screening, liquid diluting method", "format": "cell-based", "from_the_text": "Screening on Antifungal Activities The action on Candida albicans was observed using liquid diluting method. The drug concentration in the tube in which no growth of fungus observed is the minimun inhibition concentration."}, "[3]": {"tested_on": "human microvascular endothelial cells (HMEC)", "experiment": "HMEC proliferation assay (SRB), anti-angiogenic activity", "format": "cell-based", "experimental": "as §1, §2, §3, §6, §4\nThe result was also expressed as IC50 (the drug concentration reducing by 50% the absorbance in treated cells, with respect to untreated cells) that was calculated by Logit method. […]"}, "Trichophyton rubrum": {"tested_on": "Trichophyton rubrum", "experiment": "Antifungal screening, agar diluting method", "format": "cell-based", "from_the_text": "Screening on Antifungal Activities\nThe action on Trichophyton rubrum was observed using agar diluting method. The drug concentration in the Petridish on which no growth of fungus observed is the minimun inhibition concentration."}, "Sarcoma 180 cell": {"tested_on": "Sarcoma 180 cell", "experiment": "Sarcoma 180 tumor growth inhibition in mice", "format": "in vivo, Kunming strain female mice", "details": "for Tumor weight: S-180 mice; for Inhibition %: tumor growth vs control", "experimental": "(§7) 30 Kunming strain female mice weighing 18-22 g were used. Suspensions of well grown Sarcoma 180 cell were implanted subcutaneously into the right axilla region of the mice, about 4.5-5×10^6 cells/mouse. The animals were grouped randomly 24 hours after the implantation. Daily treatment with drugs or normal saline commenced 1 day after implantation of S-180 cells. Mice were administered by i.p. injection with vehicle or compounds once a day for consecutive 6 days. All the mice were euthanized after the last administration. The mice and the tumors were weighed. The average weights of tumors of each group were calculated and rate of inhibition of tumor growth in vivo was calculated using the following formula: [formula]"}, "[4]": {"experiment": "Body weight of Sarcoma 180-bearing mice under treatment", "format": "in vivo, Kunming strain female mice", "experimental": "as §7"}, "[5]": {"details": "Mus musculus, P388 cells, MTT, 48 hr, read-out: IC50"}, "[6]": {"details": "Homo sapiens, A549 cells, SRB, 72 hr, read-out: IC50"}, "[7]": {"details": "5 mg/kg i.p. once a day for 6 days"}, "[8]": {"details": "10 mg/kg i.p. once a day for 6 days"}, "[9]": {"details": "15 mg/kg i.p. once a day for 6 days"}}, "note": "Like-named read-outs stand apart in the source and are kept apart here."}
{"molecule": "COC(=O)C1=CC[C@@]23CC[C@@H]([C@@](C)(/C=C/C=C(\\C)C(=O)O)OC2=O)[C@@]3(OC(C)=O)CC1", "note": "[Pseudolarix acid-B, pseudolaric acid B, reference compound]", "values": [{"measurement": "IC50", "setting": "[1]; P388 cells, MTT, 48 hr, read-out: IC50", "value": 0.83, "unit": "nM"}, {"measurement": "IC50", "setting": "[2]; A549 cells, SRB, 72 hr, read-out: IC50", "value": 28, "unit": "nM"}, {"measurement": "MIC (μg/ml) (Candida albicans)", "setting": "Candida albicans", "value": 12.5, "unit": "µg/mL"}, {"measurement": "IC50", "setting": "[3]; HMEC cells, SRB, 72 hr, read-out: IC50", "value": 80, "unit": "nM"}, {"measurement": "MIC (μg/ml) (Trichophyton rubrum)", "setting": "Trichophyton rubrum", "value": 50.0, "unit": "µg/mL"}]}
{"molecule": "CC(=O)O[C@@]12CCC(C(=O)OCc3ccco3)=CC[C@@]13CC[C@@H]2C(C)(/C=C/C=C(\\C)C(=O)O)OC3=O", "note": "(stereo partly shown) [PEX-25Y]", "values": [{"measurement": "IC50", "setting": "[1]; [5]", "value": "< 0.1", "unit": "nM"}, {"measurement": "IC50", "setting": "[2]; [6]", "value": 55, "unit": "nM"}, {"measurement": "MIC", "setting": "Candida albicans; Candida albicans, read-out: MIC (μg/ml) (Candida albicans)", "value": 6.25, "unit": "µg/mL"}, {"measurement": "IC50", "setting": "[3]; Homo sapiens, HMEC cells, SRB, 72 hr, read-out: IC50", "value": 1, "unit": "nM"}, {"measurement": "Tumor weight", "setting": "Sarcoma 180 cell; [7]", "value": "0.30 ± 0.23", "unit": "g"}, {"measurement": "Inhibition %", "setting": "Sarcoma 180 cell; [7]", "value": 64.3, "unit": "%"}, {"measurement": "Tumor weight", "setting": "Sarcoma 180 cell; [8]", "value": "0.26 ± 0.11", "unit": "g"}, {"measurement": "Inhibition %", "setting": "Sarcoma 180 cell; [8]", "value": 69.0, "unit": "%"}, {"measurement": "Tumor weight", "setting": "Sarcoma 180 cell; [9]", "value": "0.28 ± 0.13", "unit": "g"}, {"measurement": "Inhibition %", "setting": "Sarcoma 180 cell; [9]", "value": 66.7, "unit": "%"}, {"measurement": "Body weight (g) At last", "setting": "[4]; 5 mg/kg i.p. once a day for 6 days, beginning 20.4 g", "value": 21.1, "unit": "g"}, {"measurement": "Body weight (g) At last", "setting": "[4]; 10 mg/kg i.p. once a day for 6 days, beginning 20.4 g", "value": 19.7, "unit": "g"}, {"measurement": "Body weight (g) At last", "setting": "[4]; 15 mg/kg i.p. once a day for 6 days, beginning 20.5 g", "value": 21.2, "unit": "g"}, {"measurement": "MIC", "setting": "Trichophyton rubrum; Trichophyton rubrum, read-out: MIC (μg/ml) (Trichophyton rubrum)", "value": 12.5, "unit": "µg/mL"}]}
{"molecule": "CC[C@@]1(O)C(=O)OCc2c1cc1n(c2=O)Cc2cc3cc(O)ccc3nc2-1", "note": "[hydroxycamptothecin]", "values": [{"measurement": "IC50", "setting": "[3]; Homo sapiens, HMEC, 72 h", "value": 470, "unit": "nM"}]}
{"molecule": "COC(=O)C1=CC[C@]23CC[C@H](C(C)(/C=C/C=C(\\C)C(=O)O)OC2=O)[C@]3(OC(=O)Cc2ccc(Cl)cc2)CC1", "note": "(stereo partly shown) [PEX-24Y]", "values": [{"measurement": "IC50", "setting": "[1]; [5]", "value": 0.26, "unit": "nM"}, {"measurement": "IC50", "setting": "[2]; [6]", "value": 69, "unit": "nM"}]}
{"molecule": "CC(=O)O[C@@]12CCC(C(=O)OCC3CCCCC3)=CC[C@@]13CC[C@@H]2C(C)(/C=C/C=C(\\C)C(=O)O)OC3=O", "note": "(stereo partly shown) [PEX-31Y]", "values": [{"measurement": "IC50", "setting": "[1]; Mus musculus, P388, 48 h", "value": "< 0.1", "unit": "nM"}, {"measurement": "IC50", "setting": "[2]; Homo sapiens, A549, 72 h", "value": "< 0.1", "unit": "nM"}]}
{"molecule": "COC(=O)C1=CC[C@]23CC[C@H](C(C)(/C=C/C=C(\\C)C(=O)Nc4cccc(O)c4)OC2=O)[C@]3(OC(C)=O)CC1", "note": "(stereo partly shown) [PEX-15Y]", "values": [{"measurement": "IC50", "setting": "[2]; [6]", "value": 150, "unit": "nM"}]}
